# Measured values as given in patent US10927078B2, “Modulators of indoleamine 2,3-dioxygenase” (GLAXOSMITHKLINE INTELLECTUAL PROPERTY DEVELOPMENT LIMITED, priority 2017, dated 2021).
# Read-outs that look alike come from different tables or passages of the source.
# Biological target: indoleamine 2, 3-dioxygenase (IDO1) (Homo sapiens, UniProt P14902)
# Experiment: PBMC IDO1 assay (kynurenine via mass spectrometry)
# Type: cell-based
# Experimental: Compounds of the present invention were tested via high-throughput cellular assays utilizing detection of kynurenine via mass spectrometry and cytotoxicity as end-points. For the mass spectrometry and cytotoxicity assays, human peripheral blood mononuclear cells (PBMC) (PB003F; AllCells®, Alameda, Calif.) were stimulated with human interferon-γ (IFN-γ) (Sigma-Aldrich Corporation, St. Louis, Mo.) and lipopolysaccharide from Salmonella minnesota (LPS) (Invivogen, San Diego, Calif.) to induce the expression of indoleamine 2, 3-dioxygenase (IDO1). Compounds with IDO1 inhibitory properties decreased the amount of kynurenine produced by the cells via the tryptophan catabolic pathway. Cellular toxicity due to the effect of compound treatment was measured using CellTiter-Glo® reagent (CTG) (Promega Corporation, Madison, Wis.), which is based on luminescent detection of ATP, an indicator of metabolically active cells.
# In preparation for the assays, test compounds were serially diluted 3-fold in DMSO from a typical top concentration of 5 mM and plated at 0.5 μL in 384-well, polystyrene, clear bottom, tissue culture treated plates with lids (Greiner Bio-One, Kremsmünster, Austria) to generate 11-point dose response curves. Low control wells (0% kynurenine or 100% cytotoxicity) contained either 0.5 μL of DMSO in the presence of unstimulated (-IFN-γ/-LPS) PBMCs for the mass spectrometry assay or 0.5 μL of DMSO in the absence of cells for the cytotoxicity assay, and high control wells (100% kynurenine or 0% cytotoxicity) contained 0.5 μL of DMSO in the presence of stimulated (+IFN-γ/+LPS) PBMCs for both the mass spectrometry and cytotoxicity assays.
# Frozen stocks of PBMCs were washed and recovered in RPMI 1640 medium (Thermo Fisher Scientific, Inc., Waltham, Mass.) supplemented with 10% v/v heat-inactivated fetal bovine serum (FBS) (Thermo Fisher Scientific, Inc., Waltham, Mass.), and 1× penicillin-streptomycin antibiotic solution (Thermo Fisher Scientific, Inc., Waltham, Mass.). The cells were diluted to 1,000,000 cells/mL in the supplemented RPMI 1640 medium. 50 μL of either the cell suspension, for the mass spectrometry assay, or medium alone, for the cytotoxicity assay, were added to the low control wells, on the previously prepared 384-well compound plates, resulting in 50,000 cells/well or 0 cells/well respectively. IFN-γ and LPS were added to the remaining cell suspension at final concentrations of 100 ng/ml and 50 ng/ml respectively, and 50 μL of the stimulated cells were added to all remaining wells on the 384-well compound plates. The plates, with lids, were then placed in a 37° C., 5% CO2 humidified incubator for 2 days.
# Following incubation, the 384-well plates were removed from the incubator and allowed to equilibrate to room temperature for 30 minutes. For the cytotoxicity assay, CellTiter-Glo® was prepared according to the manufacturer's instructions, and 40 μL were added to each plate well. After a twenty minute incubation at room temperature, luminescence was read on an EnVision® Multilabel Reader (PerkinElmer Inc., Waltham, Mass.). For the mass spectrometry assay, 10 μL of supernatant from each well of the compound-treated plates were added to 40 μL of acetonitrile, containing 10 μM of an internal standard for normalization, in 384-well, polypropylene, V-bottom plates (Greiner Bio-One, Kremsmünster, Austria) to extract the organic analytes. Following centrifugation at 2000 rpm for 10 minutes, 10 μL from each well of the acetonitrile extraction plates were added to 90 μL of sterile, distilled H2O in 384-well, polypropylene, V-bottom plates for analysis of kynurenine and the internal standard on the RapidFire 300 (Agilent Technologies, Santa Clara, Calif.) and 4000 QTRAP MS (SCIEX, Framingham, Mass.). MS data were integrated using Agilent Technologies' RapidFire Integrator software, and data were normalized for analysis as a ratio of kynurenine to the internal standard. […]
# [1] = human PBMC stimulated with IFN-γ and LPS, 2 days, kynurenine by mass spectrometry, recorded as pIC50, read-out: PBMC PXC50_ (converted)
# indoleamine 2, 3-dioxygenase (IDO1), sequence (P14902 whole entry): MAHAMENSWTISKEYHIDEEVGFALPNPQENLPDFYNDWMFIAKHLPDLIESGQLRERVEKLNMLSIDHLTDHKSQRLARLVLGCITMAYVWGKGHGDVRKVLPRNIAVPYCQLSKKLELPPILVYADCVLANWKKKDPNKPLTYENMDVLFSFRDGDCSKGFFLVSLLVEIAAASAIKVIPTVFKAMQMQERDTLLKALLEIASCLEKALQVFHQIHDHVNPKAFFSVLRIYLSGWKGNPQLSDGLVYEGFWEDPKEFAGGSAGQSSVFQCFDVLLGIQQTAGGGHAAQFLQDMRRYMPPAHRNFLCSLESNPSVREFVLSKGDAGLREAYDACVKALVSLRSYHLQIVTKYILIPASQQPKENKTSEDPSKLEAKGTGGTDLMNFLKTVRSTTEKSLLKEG
SMILES,IC50 [1] [nM],IC50 [nM]
"Cc1ccc(C(=O)NC(C2CC2)C2CCN(C(=O)Oc3c(C)ncnc3C)CC2)s1 (stereo in doubt) [Example 113, (S)-4,6-dimethylpyrimidin-5-yl 4-(cyclopropyl(5-methylthiophene-2-carboxamido)methyl)piperidine-1-carboxylate]",12.6,
"O=C(NC(C1CC1)C1CCN(C(=O)Oc2cncnc2)CC1)c1ccc(Cl)s1 (stereo in doubt) [Example 115, (S)-pyrimidin-5-yl 4-((5-chlorothiophene-2-carboxamido)(cyclopropyl)methyl)piperidine-1-carboxylate]",50.1,
"Cc1nccc(OC(=O)N2CCC([C@H](NC(=O)c3ccc(Cl)s3)c3ccccc3)CC2)c1C [Example 1, (S)-2,3-dimethylpyridin-4-yl 4-((5-chlorothiophene-2-carboxamido)(phenyl)methyl)piperidine-1-carboxylate]",0.631,
"Cc1ccnc(C)c1OC(=O)N1CCC(C(CC(C)C)NC(=O)c2ccc(Cl)cc2)CC1 (stereo not shown) [Example 3, 2,4-dimethylpyridin-3-yl 4-(1-(4-chlorobenzamido)-3-methylbutyl)piperidine-1-carboxylate]",,1
"CC(C)CC(NC(=O)c1ccc(Cl)cc1)C1CCN(C(=O)Oc2cccnc2C#N)CC1 (stereo not shown) [Example 5, 2-cyanopyridin-3-yl 4-{1-[(4-chlorophenyl)formamido]-3-methylbutyl}piperidine-1-carboxylate]",,1.58
"Cc1ncccc1OC(=O)N1CCC(C(CC(C)C)NC(=O)c2ccc(Cl)cc2)CC1 (stereo not shown) [Example 6, 2-methylpyridin-3-yl 4-{1-[(4-chlorophenyl)formamido]-3-methylbutyl}piperidine-1-carboxylate]",,1.58
"Cc1nccc(OC(=O)N2CCC([C@H](NC(=O)c3ccc(Cl)s3)C3CC3)CC2)c1C [Example 7, 2,3-dimethylpyridin-4-yl 4-[(R)-[(5-chlorothiophen-2-yl)formamido](cyclopropyl)methyl]piperidine-1-carboxylate]",2,
"CC(C)C[C@@H](NC(=O)c1ccc(Cl)s1)C1CCN(C(=O)Oc2ccccc2)CC1 [Example 8, phenyl 4-[(1R)-1-[(5-chlorothiophen-2-yl)formamido]-3-methylbutyl]piperidine-1-carboxylate]",2,
"Cc1c(F)cccc1OC(=O)N1CCC(C(CC(C)C)NC(=O)c2ccc(F)cc2)CC1 (stereo not shown) [Example 9, 3-fluoro-2-methylphenyl 4-{1-[(4-fluorophenyl)formamido]-3-methylbutyl}piperidine-1-carboxylate]",2.51,
"COc1ncccc1OC(=O)N1CCC(C(CC(C)C)NC(=O)c2ccc(Cl)cc2)CC1 (stereo not shown) [Example 10, 2-methoxypyridin-3-yl 4-{1-[(4-chlorophenyl)formamido]-3-methylbutyl}piperidine-1-carboxylate]",,2.51
"CC(C)CC(NC(=O)c1ccc(F)cc1)C1CCN(C(=O)Oc2cccc(F)c2Cl)CC1 (stereo not shown) [Example 11, 2-chloro-3-fluorophenyl 4-{1-[(4-fluorophenyl)formamido]-3-methylbutyl}piperidine-1-carboxylate]",2.51,
"CC(C)CC(NC(=O)c1ccc(F)cc1)C1CCN(C(=O)Oc2cccc(F)c2C#N)CC1 (stereo not shown) [Example 12, 2-cyano-3-fluorophenyl 4-{1-[(4-fluorophenyl)formamido]-3-methylbutyl}piperidine-1-carboxylate]",2.51,
"COc1c(F)cccc1OC(=O)N1CCC(C(CC(C)C)NC(=O)c2ccc(F)cc2)CC1 (stereo not shown) [Example 13, 3-fluoro-2-methoxyphenyl 4-{1-[(4-fluorophenyl)formamido]-3-methylbutyl}piperidine-1-carboxylate]",2.51,
"Cc1ncccc1OC(=O)N1CCC([C@H](NC(=O)c2ccc(Cl)cc2)c2ccccc2)CC1 [Example 14, 2-methylpyridin-3-yl 4-[(S)-[(4-chlorophenyl)formamido](phenyl)methyl]piperidine-1-carboxylate]",,2.51
"Cc1ncnc(C)c1OC(=O)N1CCC(C(CC(C)C)NC(=O)c2ccc(Cl)cc2)CC1 (stereo not shown) [Example 15, 4,6-dimethylpyrimidin-5-yl 4-{1-[(4-chlorophenyl)formamido]-3-methylbutyl}piperidine-1-carboxylate]",2.51,
"CC(C)CC(NC(=O)c1ccc(Cl)s1)C1CCN(C(=O)Oc2ccccc2)CC1 (stereo not shown) [Example 16, phenyl 4-{1-[(5-chlorothiophen-2-yl)formamido]-3-methylbutyl}piperidine-1-carboxylate]",3.16,
"Cc1ncccc1OC(=O)N1CCC(C(CC(C)C)NC(=O)c2ccc(F)cc2)CC1 (stereo not shown) [Example 18, 2-methylpyridin-3-yl 4-{1-[(4-fluorophenyl)formamido]-3-methylbutyl}piperidine-1-carboxylate]",,3.16
"Cc1c(F)cccc1OC(=O)N1CCC([C@H](NC(=O)c2ccc(Cl)s2)C2CC2)CC1 [Example 19, 3-fluoro-2-methylphenyl 4-[(R)-[(5-chlorothiophen-2-yl)formamido](cyclopropyl)methyl]piperidine-1-carboxylate]",3.16,
"Cc1nccc(OC(=O)N2CCC([C@H](NC(=O)c3ccc(Cl)cc3)c3ccccc3)CC2)c1C [Example 20, 2,3-dimethylpyridin-4-yl 4-[(S)-[(4-chlorophenyl)formamido](phenyl)methyl]piperidine-1-carboxylate]",3.98,
"CC(C)C[C@@H](NC(=O)c1ccc(Cl)cc1)C1CCN(C(=O)Oc2ccccc2)CC1 [Example 21, phenyl 4-[(1R)-1-[(4-chlorophenyl)formamido]-3-methylbutyl]piperidine-1-carboxylate]",3.98,
"CC(C)CC(NC(=O)c1ccc(F)cc1)C1CCN(C(=O)Oc2cccnc2F)CC1 (stereo not shown) [Example 22, 2-fluoropyridin-3-yl 4-{1-[(4-fluorophenyl)formamido]-3-methylbutyl}piperidine-1-carboxylate]",,3.98
"O=C(N[C@H](C1CC1)C1CCN(C(=O)Oc2ccccc2)CC1)c1ccc(Cl)s1 [Example 23, phenyl 4-[(R)-[(5-chlorothiophen-2-yl)formamido](cyclopropyl)methyl]piperidine-1-carboxylate]",3.98,
"CC(C)C[C@@H](NC(=O)c1ccccc1)C1CCN(C(=O)Oc2ccccc2)CC1 [Example 25, phenyl 4-[(1R)-3-methyl-1-(phenylformamido)butyl]piperidine-1-carboxylate]",5.01,
"CC(C)CC(NC(=O)c1ccc(Cl)cc1)C1CCN(C(=O)Oc2ccccc2)CC1 (stereo not shown) [Example 26, phenyl 4-{1-[(4-chlorophenyl)formamido]-3-methylbutyl}piperidine-1-carboxylate]",5.01,
"CC(C)C[C@@H](NC(=O)c1ccc(F)cc1)C1CCN(C(=O)Oc2ccccc2)CC1 [Example 27, phenyl 4-[(1R)-1-[(4-fluorophenyl)formamido]-3-methylbutyl]piperidine-1-carboxylate]",5.01,
"Cc1cccc(OC(=O)N2CCC(C(CC(C)C)NC(=O)c3ccc(F)cc3)CC2)c1F (stereo not shown) [Example 28, 2-fluoro-3-methylphenyl 4-{1-[(4-fluorophenyl)formamido]-3-methylbutyl}piperidine-1-carboxylate]",5.01,
"Cc1cnccc1OC(=O)N1CCC(C(CC(C)C)NC(=O)c2ccc(Cl)cc2)CC1 (stereo not shown) [Example 29, 3-methylpyridin-4-yl 4-{1-[(4-chlorophenyl)formamido]-3-methylbutyl}piperidine-1-carboxylate]",5.01,
"COc1ncccc1OC(=O)N1CCC(C(CC(C)C)NC(=O)c2ccc(F)cc2)CC1 (stereo not shown) [Example 30, 2-methoxypyridin-3-yl 4-{1-[(4-fluorophenyl)formamido]-3-methylbutyl}piperidine-1-carboxylate]",,5.01
